Reference: ChEMBL document CHEMBL4616703, “Benzoxazepine-Derived Selective, Orally Bioavailable Inhibitor of Human Acidic Mammalian Chitinase” (ACS Med Chem Lett, 2020)

System: not listed separately
Test: Half life in BALB/c mouse at 3 mg/kg, iv administered as single bolus dose measured after 24 hrs by LC-MS/MS analysis
Assay type: ADME, organism-based
Conditions: in vivo

half-life	Structure (SMILES)
84 min	Nc1nnc(N2CCC(N3Cc4ccccc4OC[C@@H]3Cc3ccc(Cl)cc3)CC2)[nH]1

System: not listed separately
Test: Cmax in BALB/c mouse at 3 mg/kg, iv administered as single bolus dose measured after 24 hrs by LC-MS/MS analysis
Assay type: ADME, organism-based
Design: dose 3 mg/kg, route intravenous
Conditions: in vivo

Cmax	Structure (SMILES)
9500 ng/mL	Nc1nnc(N2CCC(N3Cc4ccccc4OC[C@@H]3Cc3ccc(Cl)cc3)CC2)[nH]1

System: not listed separately
Test: AUC (0 to infinity) in BALB/c mouse at 3 mg/kg, iv administered as single dose measured after 24 hrs by LC-MS/MS analysis
Assay type: ADME, organism-based
Design: dose 3 mg/kg, route intravenous, time infinity
Conditions: in vivo

AUC(0-inf)	Structure (SMILES)
2900 ng·h/mL	Nc1nnc(N2CCC(N3Cc4ccccc4OC[C@@H]3Cc3ccc(Cl)cc3)CC2)[nH]1

System: not listed separately
Test: AUC (0 to infinity) in Sprague-Dawley rat at 10 mg/kg, po administered as single dose measured after 24 hrs by LC-MS/MS analysis
Assay type: ADME, organism-based
Design: dose 10 mg/kg, time infinity, route oral
Conditions: in vivo

AUC(0-inf)	Structure (SMILES)
7800 ng·h/mL	Nc1nc(N2CCC(N(CCc3ccc(Cl)cc3)Cc3cccc(Cl)c3)CC2)n[nH]1
13700 ng·h/mL	Nc1nc(N2CCC(N(CCc3ccc(Cl)cc3)Cc3cccc(C(F)(F)F)c3)CC2)n[nH]1
7000 ng·h/mL	Nc1nc(N2CCC(N(CCc3ccc(Cl)cc3)Cc3ccc(Cl)cc3)CC2)n[nH]1
430 ng·h/mL	Nc1nc(N2CCC(N(CCc3ccc(Cl)cc3)Cc3ccncc3Cl)CC2)n[nH]1

More lines, now with the values behind:

Structure (SMILES)	AUC(0-inf)
Nc1nc(N2CCC(N(CCc3ccc(Cl)cc3)Cc3cc(F)ccc3F)CC2)n[nH]1	2400 ng·h/mL
CC(C)CN(CCc1ccc(Cl)cc1)C1CCN(c2nc(N)n[nH]2)CC1	90 ng·h/mL
Nc1nc(N2CCC(N(CCc3ccc(Cl)cc3)Cc3ccc(F)cc3Cl)CC2)n[nH]1	7500 ng·h/mL
Nc1n[nH]c(N2CCC(N(CCc3ccc(Cl)cc3)Cc3ccccc3Cl)CC2)n1	1400 ng·h/mL

System: not listed separately
Test: Half life in BALB/c mouse at 10 mg/kg, po administered as single dose measured after 24 hrs by LC-MS/MS analysis
Assay type: ADME, organism-based
Conditions: in vivo

half-life	Structure (SMILES)
66 min	Nc1nnc(N2CCC(N3Cc4ccccc4OC[C@@H]3Cc3ccc(Cl)cc3)CC2)[nH]1

System: not listed separately
Test: Cmax in BALB/c mouse at 10 mg/kg, po administered as single dose measured after 24 hrs by LC-MS/MS analysis
Assay type: ADME, organism-based
Design: dose 10 mg/kg, route oral
Conditions: in vivo

Cmax	Structure (SMILES)
3100 ng/mL	Nc1nnc(N2CCC(N3Cc4ccccc4OC[C@@H]3Cc3ccc(Cl)cc3)CC2)[nH]1

System: not listed separately
Test: Cmax in Sprague-Dawley rat at 10 mg/kg, po administered as single dose measured after 24 hrs by LC-MS/MS analysis
Assay type: ADME, organism-based
Design: dose 10 mg/kg, route oral
Conditions: in vivo

Cmax	Structure (SMILES)
780 ng/mL	Nc1nc(N2CCC(N(CCc3ccc(Cl)cc3)Cc3cccc(Cl)c3)CC2)n[nH]1
1600 ng/mL	Nc1nc(N2CCC(N(CCc3ccc(Cl)cc3)Cc3cccc(C(F)(F)F)c3)CC2)n[nH]1
130 ng/mL	Nc1nc(N2CCC(N(CCc3ccc(Cl)cc3)Cc3ccncc3Cl)CC2)n[nH]1

Continued, compound first:

Structure (SMILES)	Cmax
Nc1nnc(N2CCC(N3Cc4ccccc4OC[C@@H]3Cc3ccc(Cl)cc3)CC2)[nH]1	3400 ng/mL
Nc1nc(N2CCC(N(CCc3ccc(Cl)cc3)Cc3cc(F)ccc3F)CC2)n[nH]1	600 ng/mL
Nc1nc(N2CCC(N(CCc3ccc(Cl)cc3)Cc3ccc(F)cc3Cl)CC2)n[nH]1	690 ng/mL

Target: Chitotriosidase-1 (Homo sapiens, UniProt Q13231)
Test: Inhibition of full length recombinant C-terminal His-taged human CHIT1 expressed in CHOK1 cells assessed as reduction in chitinolytic activity using 4-methylumbelliferyl-beta-D-N,N',N''-[…] as substrate incubated for 60 mins under shaking condition by microplate fluorometry analysis
Design: species or system CHO-K1
Conditions: not given

Chitotriosidase-1, sequence (Q13231 whole entry): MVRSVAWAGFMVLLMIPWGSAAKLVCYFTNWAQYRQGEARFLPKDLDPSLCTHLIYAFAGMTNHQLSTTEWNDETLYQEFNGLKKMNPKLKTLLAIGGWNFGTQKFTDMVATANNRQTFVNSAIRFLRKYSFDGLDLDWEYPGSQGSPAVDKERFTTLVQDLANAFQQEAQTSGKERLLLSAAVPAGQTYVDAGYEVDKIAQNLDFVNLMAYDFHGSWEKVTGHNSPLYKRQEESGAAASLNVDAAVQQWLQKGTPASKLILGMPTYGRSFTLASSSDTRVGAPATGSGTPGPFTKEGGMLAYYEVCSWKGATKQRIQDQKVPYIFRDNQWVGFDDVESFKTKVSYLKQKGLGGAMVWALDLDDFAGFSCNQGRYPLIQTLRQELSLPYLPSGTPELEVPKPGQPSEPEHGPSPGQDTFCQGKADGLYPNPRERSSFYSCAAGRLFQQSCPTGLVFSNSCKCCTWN

IC50	Structure (SMILES)
176 nM	Nc1nc(N2CCC(N(CCc3ccc(Cl)cc3)Cc3cccc(Cl)c3)CC2)n[nH]1
310 nM	Nc1nc(N2CCC(N(CCc3ccc(Cl)cc3)Cc3cccc(C(F)(F)F)c3)CC2)n[nH]1
90 nM	Nc1nc(N2CCC(N(CCc3ccc(Cl)cc3)Cc3ccc(Cl)cc3)CC2)n[nH]1
620 nM	Nc1nc(N2CCC(N(CCc3ccc(Cl)cc3)Cc3ccncc3Cl)CC2)n[nH]1

The remaining lines, values behind:

Structure (SMILES)	IC50
Nc1nc(N2CCC(N(CCc3ccc(Cl)cc3)Cc3ccccc3O)CC2)n[nH]1	49 nM
Nc1nnc(N2CCC(N3Cc4cc(Cl)ccc4OC[C@@H]3Cc3ccc(Cl)cc3)CC2)[nH]1	2300 nM
CN1C[C@H](Cc2ccc(Cl)cc2)N(C2CCN(c3nnc(N)[nH]3)CC2)Cc2ccccc21	275 nM
Nc1nnc(N2CCC(N3Cc4ccccc4OC[C@@H]3Cc3ccc(Cl)cc3)CC2)[nH]1	915 nM
Nc1nc(N2CCC(N(CCc3ccc(Cl)cc3)Cc3cc(F)ccc3F)CC2)n[nH]1	277 nM
CC(C)CN(CCc1ccc(Cl)cc1)C1CCN(c2nc(N)n[nH]2)CC1	229 nM
Nc1nc(N2CCC(N(CCc3ccc(Cl)cc3)Cc3ccc(F)cc3Cl)CC2)n[nH]1	200 nM
Nc1n[nH]c(N2CCC(N(CCc3ccc(Cl)cc3)Cc3ccccc3Cl)CC2)n1	104 nM

System: not listed separately
Test: Mean residence time in BALB/c mouse at 3 mg/kg, iv administered as single bolus dose measured after 24 hrs by LC-MS/MS analysis
Assay type: ADME, organism-based
Conditions: in vivo

MRT	Structure (SMILES)
20.4 min	Nc1nnc(N2CCC(N3Cc4ccccc4OC[C@@H]3Cc3ccc(Cl)cc3)CC2)[nH]1

System: not listed separately
Test: Tmax in Sprague-Dawley rat at 10 mg/kg, po administered as single dose measured after 24 hrs by LC-MS/MS analysis
Assay type: ADME, organism-based
Conditions: in vivo

Tmax	Structure (SMILES)
30 min	Nc1nnc(N2CCC(N3Cc4ccccc4OC[C@@H]3Cc3ccc(Cl)cc3)CC2)[nH]1

System: not listed separately
Test: AUC (0 to infinity) in BALB/c mouse at 10 mg/kg, po administered as single dose measured after 24 hrs by LC-MS/MS analysis
Assay type: ADME, organism-based
Design: dose 10 mg/kg, route oral, time infinity
Conditions: in vivo

AUC(0-inf)	Structure (SMILES)
3900 ng·h/mL	Nc1nnc(N2CCC(N3Cc4ccccc4OC[C@@H]3Cc3ccc(Cl)cc3)CC2)[nH]1

System: not listed separately
Test: Oral bioavailability in BALB/c mouse at 10 mg/kg administered as single dose measured after 24 hrs by LC-MS/MS analysis
Assay type: ADME, organism-based
Conditions: in vivo

bioavailability	Structure (SMILES)
41%	Nc1nnc(N2CCC(N3Cc4ccccc4OC[C@@H]3Cc3ccc(Cl)cc3)CC2)[nH]1

Target: T1, Voltage-gated inwardly rectifying potassium channel KCNH2 (Homo sapiens, UniProt Q12809)
Test: Displacement of Tracer Red from human ERG by fluorescence polarization assay
Conditions: not given

T1 sequence (Q12809 whole entry): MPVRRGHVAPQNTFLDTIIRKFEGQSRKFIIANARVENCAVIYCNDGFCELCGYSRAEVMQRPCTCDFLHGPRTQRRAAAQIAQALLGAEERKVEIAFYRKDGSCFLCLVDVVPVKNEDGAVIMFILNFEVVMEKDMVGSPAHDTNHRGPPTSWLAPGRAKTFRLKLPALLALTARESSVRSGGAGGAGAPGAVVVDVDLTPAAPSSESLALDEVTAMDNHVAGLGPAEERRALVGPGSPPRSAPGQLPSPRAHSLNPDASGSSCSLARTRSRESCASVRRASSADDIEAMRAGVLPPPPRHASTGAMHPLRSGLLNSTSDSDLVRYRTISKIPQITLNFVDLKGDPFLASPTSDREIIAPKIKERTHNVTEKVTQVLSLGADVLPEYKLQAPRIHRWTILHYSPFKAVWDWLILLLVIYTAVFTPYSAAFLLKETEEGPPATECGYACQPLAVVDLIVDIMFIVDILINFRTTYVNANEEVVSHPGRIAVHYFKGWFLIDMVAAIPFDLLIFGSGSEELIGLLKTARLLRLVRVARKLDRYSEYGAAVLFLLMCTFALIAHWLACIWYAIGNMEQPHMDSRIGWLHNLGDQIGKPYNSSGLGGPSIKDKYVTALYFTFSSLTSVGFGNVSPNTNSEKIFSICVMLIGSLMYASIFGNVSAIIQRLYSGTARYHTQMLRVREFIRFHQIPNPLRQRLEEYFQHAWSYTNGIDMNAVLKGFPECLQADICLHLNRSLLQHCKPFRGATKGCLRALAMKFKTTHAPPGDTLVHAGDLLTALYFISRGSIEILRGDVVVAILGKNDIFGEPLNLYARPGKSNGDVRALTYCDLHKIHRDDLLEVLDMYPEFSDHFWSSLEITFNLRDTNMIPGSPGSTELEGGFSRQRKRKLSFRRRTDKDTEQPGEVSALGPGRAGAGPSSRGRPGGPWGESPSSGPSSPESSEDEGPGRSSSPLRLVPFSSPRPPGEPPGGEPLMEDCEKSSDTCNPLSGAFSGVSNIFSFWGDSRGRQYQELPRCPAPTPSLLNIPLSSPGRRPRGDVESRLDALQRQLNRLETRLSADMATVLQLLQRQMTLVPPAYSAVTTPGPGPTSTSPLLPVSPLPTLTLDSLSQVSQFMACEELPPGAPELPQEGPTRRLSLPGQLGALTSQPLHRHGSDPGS

Structure (SMILES)	IC50
Nc1nc(N2CCC(N(CCc3ccc(Cl)cc3)Cc3ccccc3O)CC2)n[nH]1	100 nM
Nc1nnc(N2CCC(N3Cc4cc(Cl)ccc4OC[C@@H]3Cc3ccc(Cl)cc3)CC2)[nH]1	6700 nM
CN1C[C@H](Cc2ccc(Cl)cc2)N(C2CCN(c3nnc(N)[nH]3)CC2)Cc2ccccc21	3200 nM
Nc1nc(N2CCC(N(CCc3ccc(Cl)cc3)Cc3cccc(Cl)c3)CC2)n[nH]1	3700 nM
Nc1nnc(N2CCC(N3Cc4ccccc4OC[C@@H]3Cc3ccc(Cl)cc3)CC2)[nH]1	22000 nM
Nc1nc(N2CCC(N(CCc3ccc(Cl)cc3)Cc3cccc(C(F)(F)F)c3)CC2)n[nH]1	2700 nM
Nc1nc(N2CCC(N(CCc3ccc(Cl)cc3)Cc3ccc(Cl)cc3)CC2)n[nH]1	400 nM
Nc1n[nH]c(N2CCC(N(CCc3ccc(Cl)cc3)Cc3ccccc3Cl)CC2)n1	2000 nM
Nc1nc(N2CCC(N(CCc3ccc(Cl)cc3)Cc3ccncc3Cl)CC2)n[nH]1	6400 nM

System: not listed separately
Test: Mean residence time in Sprague-Dawley rat at 10 mg/kg, po administered as single dose measured after 24 hrs by LC-MS/MS analysis
Assay type: ADME, organism-based
Conditions: in vivo

MRT	Structure (SMILES)
252 min	Nc1nnc(N2CCC(N3Cc4ccccc4OC[C@@H]3Cc3ccc(Cl)cc3)CC2)[nH]1

Target: Acidic mammalian chitinase (Homo sapiens, UniProt Q9BZP6)
Test: Inhibition of full length recombinant C-terminal His-tagged human acidic mammalian chitinase expressed in CHOK1 cells assessed as reduction in chitinolytic activity using 4-methylumbelliferyl-beta-D-N,N-diacetylchitobioside hydrate as substrate incubated for 60 mins under shaking condition by microplate fluorometry analysis
Design: species or system CHO-K1
Conditions: not given

Acidic mammalian chitinase, sequence (Q9BZP6 whole entry): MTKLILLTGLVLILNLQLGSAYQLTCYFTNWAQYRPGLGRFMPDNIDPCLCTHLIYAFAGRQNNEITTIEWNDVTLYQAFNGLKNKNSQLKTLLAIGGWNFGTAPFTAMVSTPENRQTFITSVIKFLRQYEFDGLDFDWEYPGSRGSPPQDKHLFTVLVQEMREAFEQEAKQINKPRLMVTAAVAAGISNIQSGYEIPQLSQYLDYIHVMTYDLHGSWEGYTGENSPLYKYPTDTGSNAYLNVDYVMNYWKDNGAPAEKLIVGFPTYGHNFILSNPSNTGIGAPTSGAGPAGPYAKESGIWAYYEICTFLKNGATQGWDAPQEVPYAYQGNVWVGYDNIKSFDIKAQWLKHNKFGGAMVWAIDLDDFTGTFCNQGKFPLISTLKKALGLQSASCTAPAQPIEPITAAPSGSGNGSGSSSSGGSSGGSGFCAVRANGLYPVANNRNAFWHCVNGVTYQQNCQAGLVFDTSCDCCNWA

IC50	Structure (SMILES)
6 nM	Nc1nc(N2CCC(N(CCc3ccc(Cl)cc3)Cc3cccc(Cl)c3)CC2)n[nH]1
12 nM	Nc1nc(N2CCC(N(CCc3ccc(Cl)cc3)Cc3cccc(C(F)(F)F)c3)CC2)n[nH]1
4 nM	Nc1nc(N2CCC(N(CCc3ccc(Cl)cc3)Cc3ccc(Cl)cc3)CC2)n[nH]1
15 nM	Nc1nc(N2CCC(N(CCc3ccc(Cl)cc3)Cc3ccncc3Cl)CC2)n[nH]1

More lines, now with the values behind:

Structure (SMILES)	IC50
Nc1nc(N2CCC(N(CCc3ccc(Cl)cc3)Cc3ccccc3O)CC2)n[nH]1	2 nM
Nc1nnc(N2CCC(N3Cc4cc(Cl)ccc4OC[C@@H]3Cc3ccc(Cl)cc3)CC2)[nH]1	8 nM
CN1C[C@H](Cc2ccc(Cl)cc2)N(C2CCN(c3nnc(N)[nH]3)CC2)Cc2ccccc21	1.4 nM
Nc1nnc(N2CCC(N3Cc4ccccc4OC[C@@H]3Cc3ccc(Cl)cc3)CC2)[nH]1	7 nM
Nc1nc(N2CCC(N(CCc3ccc(Cl)cc3)Cc3cc(F)ccc3F)CC2)n[nH]1	5 nM
Nc1nc(N2CCC(N(CCc3ccc(Cl)cc3)Cc3ccc(F)cc3Cl)CC2)n[nH]1	5 nM

System: not listed separately
Test: Clearance in BALB/c mouse at 3 mg/kg, iv administered as single bolus dose measured after 24 hrs by LC-MS/MS analysis
Assay type: ADME, organism-based
Conditions: in vivo

clearance	Structure (SMILES)
16.7 mL/min/kg	Nc1nnc(N2CCC(N3Cc4ccccc4OC[C@@H]3Cc3ccc(Cl)cc3)CC2)[nH]1

System: not listed separately
Test: Mean residence time in BALB/c mouse at 10 mg/kg, po administered as single dose measured after 24 hrs by LC-MS/MS analysis
Assay type: ADME, organism-based
Conditions: in vivo

MRT	Structure (SMILES)
50.4 min	Nc1nnc(N2CCC(N3Cc4ccccc4OC[C@@H]3Cc3ccc(Cl)cc3)CC2)[nH]1

System: not listed separately
Test: AUC(0 to infinity) in Sprague-Dawley rat at 10 mg/kg, po administered as single dose measured after 24 hrs by LC-MS/MS analysis
Assay type: ADME, organism-based
Design: dose 10 mg/kg, route oral, time infinity
Conditions: in vivo

AUC(0-inf)	Structure (SMILES)
22500 ng·h/mL	Nc1nnc(N2CCC(N3Cc4ccccc4OC[C@@H]3Cc3ccc(Cl)cc3)CC2)[nH]1

Target: T1, Voltage-gated inwardly rectifying potassium channel KCNH2
Test: Inhibition of human ERG expressed in CHO-K1 cells by automated Qpatch-clamp assay
Assay type: cell-based
Conditions: not given

Structure (SMILES)	IC50
Nc1nnc(N2CCC(N3Cc4ccccc4OC[C@@H]3Cc3ccc(Cl)cc3)CC2)[nH]1	23000 nM

System: not listed separately
Test: Half life in Sprague-Dawley rat at 10 mg/kg, po administered as single dose measured after 24 hrs by LC-MS/MS analysis
Assay type: ADME, organism-based
Conditions: in vivo

half-life	Structure (SMILES)
252 min	Nc1nnc(N2CCC(N3Cc4ccccc4OC[C@@H]3Cc3ccc(Cl)cc3)CC2)[nH]1

System: not listed separately
Test: Tmax in BALB/c mouse at 10 mg/kg, po administered as single dose measured after 24 hrs by LC-MS/MS analysis
Assay type: ADME, organism-based
Conditions: in vivo

Tmax	Structure (SMILES)
30 min	Nc1nnc(N2CCC(N3Cc4ccccc4OC[C@@H]3Cc3ccc(Cl)cc3)CC2)[nH]1

System: not listed separately
Test: Volume of distribution at steady state in BALB/c mouse at 3 mg/kg, iv administered as single bolus dose measured after 24 hrs by LC-MS/MS analysis
Assay type: ADME, organism-based
Conditions: in vivo, read-out: Vdss

Vd	Structure (SMILES)
0.35 L/kg	Nc1nnc(N2CCC(N3Cc4ccccc4OC[C@@H]3Cc3ccc(Cl)cc3)CC2)[nH]1
